Assay results: patent publication US10669271B2, “Heterocyclic compounds as immunomodulators” (Incyte Corporation, priority 2018, dated 2020)

Assays:
[1] = tested on: PD-L1 aAPC/CHO-K1 cells and Jurkat-PD-1-NFAT effector cells; assay: Nuclear factor of activated T-cells (NFAT) assay; type: cell-based; conditions: Cricetulus griseus; PD-L1 aAPC/CHO-K1 cells with Jurkat-PD-1-NFAT effector cells, 24 hours
Method: Example C. Nuclear Factor of Activated T-Cells (NFAT) Assay
PD-L1 aAPC/CHO-Klcells (Promega) were maintained in F-12 medium with addition of 10% FBS, 200 μg/ml Hygromycin B, 250 μg/ml Geneticin (G418). Jurkat-PD-1-NFAT effector cells (Promega) were cultured in RPMI 1640 medium supplemented with 10% FBS, 100 μg/ml Hygromycin B, 500 μg/ml G418. The culture media of PD-L1 aAPC/CHO-K1 cells were first replaced with assay medium (RPMI1640 medium with 1% FBS). The PD-L1 aAPC/CHO-K1 cells were then added in a white 384-well white clear bottom assay plate (CELLCOAT® Tissue Culture Plates, Greiner Bio-One) at 8000 per well in 10 μL assay medium. Test compounds were prepared by serial dilution in DMSO and 0.8 μL test compounds in DMSO were first transferred to the 384 REMP plate well (Thermofisher) by PlateMate Plus (Thermofisher) followed with addition of 50 μL plating medium. 5 μL compounds in the assay medium were transferred to the cells with 0.4% DMSO in the final assay at 2 μM. After removing the culture media, 10,000 Jurkat-PD-1-NFAT effector cells in 5 μL assay medium was dispensed into each well. The assay plate was incubated at 37° C., 5% CO2 for 24 hours. After the assay plate was equilibrated to room temp for 15 minutes, 20 µL/well of Bio-Glo™ reagent (Promega) were added. After 8 minutes incubation at room temperature, luminescence was read at with Pherastar microplate reader (BMG Labtech). The fold of induction (FOI) was calculated based on the ratio of luminescence normalized to the DMSO wells within each assay plate. The maximum percentage of induction was reported based on the ratio between the highest FOI of each compound and the maximum FOI of control compound within each assay plate. Wells with DMSO were served as the negative controls and wells containing control compound with the highest FOI were used as positive controls. EC50 determination was performed by fitting the curve of percent control activity versus the log of the compound concentration using the GraphPad Prism 6.0 software.

PD-L1 = PD-L1 (Homo sapiens (Human), UniProt Q9NZQ7); assay: PD-L1 whole blood internalization assay; type: cell-based; conditions: 1 ng/ml human interferon γ, PD-L1 expression on CD14+ cells, read-out: Whole Blood (24 HR) IC50
PD-L1, sequence (Q9NZQ7 19-290): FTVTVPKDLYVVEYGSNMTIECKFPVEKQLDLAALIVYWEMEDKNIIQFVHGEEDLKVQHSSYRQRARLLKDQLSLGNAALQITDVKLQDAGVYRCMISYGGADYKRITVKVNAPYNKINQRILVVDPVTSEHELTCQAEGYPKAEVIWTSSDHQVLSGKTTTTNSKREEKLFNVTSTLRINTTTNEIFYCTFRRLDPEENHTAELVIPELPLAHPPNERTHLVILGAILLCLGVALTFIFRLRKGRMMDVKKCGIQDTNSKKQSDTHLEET
Method: Example D. PD-L1 Whole Blood Internalization Assay
To determine PD-L1 internalization in human whole blood, normal human blood (Biological Specialty Corp, Colmar. Pa.) was incubated in the presence or absence of a concentration range of test compounds and 1 ng/ml human interferon γ (R&D Systems Inc. Minn. […] Blood was then stained with PD-L1 (MIH1, eBioscience; or BD Biosciences San Jose, Calif.), CD14 (Life Technologies, Carlsbad, Calif.) for 30 minutes in the dark at room temperature. Whole Blood/red cells were lysed/fixed (lysis buffer BD Biosciences) for 5 minutes at 37° C. in the dark and then centrifuged at 1600 RPM for 5 minutes. Cells were resuspended in Stain Buffer (BD Bioscience, San Jose, Calif.) and transferred into 96 well round bottom plates (Corning). Cells were gated on CD14+(BD Biosciences) and PD-L1 expression determined by mean fluorescence intensity (MFI) (BD LSRFortessa™ X-20). IC50 determination was performed by fitting the curve of compound percent inhibition versus the log of the compound concentration using the GraphPad Prism 7.0 software.

PD-1/PD-L1 = PD-1/PD-L1 (Homo sapiens (Human), UniProt Q9NZQ7); assay: Homogeneous Time-Resolved Fluorescence (HTRF) PD-1/PD-L1 binding assay; conditions: recombinant human PD-1 and PD-L1, 25° C., pH 7.4
PD-1/PD-L1, sequence (Q9NZQ7 19-238): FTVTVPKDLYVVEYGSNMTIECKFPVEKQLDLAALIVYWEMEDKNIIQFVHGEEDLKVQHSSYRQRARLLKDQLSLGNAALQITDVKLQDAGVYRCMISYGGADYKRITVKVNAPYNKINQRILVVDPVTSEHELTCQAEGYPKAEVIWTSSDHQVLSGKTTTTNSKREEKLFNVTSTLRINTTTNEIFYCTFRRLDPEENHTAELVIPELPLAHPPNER
Method: Example A. Homogeneous Time-Resolved Fluorescence (HTRF) PD-1/PD-L1 Binding Assay
The assays were conducted in a standard black 384-well polystyrene plate with a final volume of 20 μL. Inhibitors were first serially diluted in DMSO and then added to the plate wells before the addition of other reaction components. The final concentration of DMSO in the assay was 1%. The assays were carried out at 25° C. in the PBS buffer (pH 7.4) with 0.05% Tween-20 and 0.1% BSA. Recombinant human PD-L1 protein (19-238) with a His-tag at the C-terminus was purchased from AcroBiosystems (PD1-H5229). Recombinant human PD-1 protein (25-167) with Fc tag at the C-terminus was also purchased from AcroBiosystems (PD1-H5257). PD-L1 and PD-1 proteins were diluted in the assay buffer and 10 μL was added to the plate well. Plates were centrifuged and proteins were preincubated with inhibitors for 40 minutes. The incubation was followed by the addition of 10 μL of HTRF detection buffer supplemented with Europium cryptate-labeled anti-human IgG (PerkinElmer-AD0212) specific for Fc and anti-His antibody conjugated to SureLight®-Allophycocyanin (APC, PerkinElmer-AD0059H). After centrifugation, the plate was incubated at 25° C. for 60 min. before reading on a PHERAstar FS plate reader (665 nm/620 nm ratio). Final concentrations in the assay were—3 nM PD1,10 nM PD-L1, 1 nM europium anti-human IgG and 20 nM anti-His-Allophycocyanin. IC50 determination was performed by fitting the curve of percent control activity versus the log of the inhibitor concentration using the GraphPad Prism 5.0 software.

[2] = tested on: U2OS/PD-L1 cells and Jurkat-PD-1-SHP cells; assay: Src homology region 2 domain-containing phosphatase (SHP) assay; type: cell-based; conditions: Homo sapiens; U2OS/PD-L1 cells with Jurkat-PD-1-SHP cells, 2 hours
Method: Example B. Src Homology Region 2 Domain-Containing Phosphatase (SHP) Assay
U2OS/PD-L1 cells (DiscoveRx Corporation) were maintained in McCoy's 5A medium with addition of 10% FBS, 0.25 μg/ml Puromycin. After removing the culture media, the cell medium was replaced with assay medium (RPMI1640 medium with 1% FBS). The U2OS/PD-L1 cells were then added in 384-well black clear bottom assay plate (CELLCOAT® Tissue Culture Plates, Greiner Bio-One) at 5000 cells per well in 20 μL assay medium. Test compounds were prepared by serial dilution in DMSO and 125 nL compound were first transferred to the 384 REMP plate well (Thermofisher) by ECHO liquid handler (Labcyte) followed with addition of 27.5 μL assay medium. 5 μL/well compounds in the assay medium were transferred to the cell plate with 0.05% DMSO in the final assay at 0.5 μM. Jurkat-PD-1-SHP cells (DiscoveRx Corporation) were cultured in RPMI1640 medium supplemented with 10% FBS, 250 μg/ml Hygromycin B, 500 μg/ml G418. After the replacement of culture media with assay medium, 5,000 Jurkat-PD-1-SHP cells in 20 μL were dispensed into each well. The assay plate was incubated at 37° C., 5% CO2 for 2 hours before 2.5 μL PathHunter reagent 1 (DiscoveRx Corporation) were added to each well. The assay plate was shaken for 1 min at 350 rpm in the dark followed with addition of 10 μL PathHunter reagent 2 (DiscoveRx Corporation). Chemiluminescent signal was recorded with TopCount reader (Perkin Elmer) after incubation at room temperature for 1 hour. Wells with DMSO were served as the positive controls and wells containing no cells were used as negative controls. IC50 determination was performed by fitting the curve of percentage of control activity versus the log of the compound concentration using the GraphPad Prism 6.0 software.

| Structure (SMILES) | IC50 (PD-L1) [nM] | IC50 (PD-1/PD-L1) [nM] | IC50 [2] [nM] | EC50 [1] [nM] |
| --- | --- | --- | --- | --- |
| Cc1nc(Nc2cccc(-c3cccc(-c4nc5cc(CN6CC[C@@](C)(C(=O)O)C6)cc(C#N)c5o4)c3C)c2C)c2ncc(CN3CC[C@](C)(O)C3)cc2n1 [Example 13, (R)-1-((7-cyano-2-(3′-(7-(((S)-3-hydroxy-3-methylpyrrolidin-1-yl)methyl)-2-methylpyrido[3,2-d]pyrimidin-4-ylamino)-2,2′-dimethylbiphenyl-3-yl)benzo[d]oxazol-5-yl)methyl)-3-methylpyrrolidine-3-carboxylic Acid] | 10 to 100 | ≤ 10 | ≤ 10 | 10 to 100 |
| Cc1c(Nc2nc(C(F)F)nc3cc(CN4CC[C@](C)(O)C4)cnc23)cccc1-c1cccc(-c2nc3cc(CN4CCC(C(=O)O)CC4)cc(C#N)c3o2)c1C [Example 31, (S)-1-((7-cyano-2-(3′-(2-(difluoromethyl)-7-((3-hydroxy-3-methylpyrrolidin-1-yl)methyl)pyrido[3,2-d]pyrimidin-4-ylamino)-2,2′-dimethylbiphenyl-3-yl)benzo[d]oxazol-5-yl)methyl)piperidine-4-carboxylic Acid] | 10 to 100 | ≤ 10 | ≤ 10 | ≤ 10 |
| Cc1c(Nc2nc(C3CC3)nc3cc(CN4CC[C@@H](O)C4)cnc23)cccc1-c1cccc(-c2nc3cc(CN4CC[C@@H](C(=O)O)C4)cc(C#N)c3o2)c1C [Example 28, (R)-1-((7-cyano-2-(3′-(2-cyclopropyl-7-(((R)-3-hydroxypyrrolidin-1-yl)methyl)pyrido[3,2-d]pyrimidin-4-ylamino)-2,2′-dimethylbiphenyl-3-yl)benzo[d]oxazol-5-yl)methyl)pyrrolidine-3-carboxylic Acid] | 100 to 500 | ≤ 10 | 10 to 100 | 10 to 100 |
| Cc1nc(Nc2cccc(-c3cccc(-c4nc5cc(CN6CC[C@@](C)(C(=O)O)C6)cc(C#N)c5o4)c3C)c2C)c2ncc(CN[C@@H](C)CO)cc2n1 [Example 14, (R)-1-((7-cyano-2-(3′-(7-(((S)-1-hydroxypropan-2-ylamino)methyl)-2-methylpyrido[3,2-d]pyrimidin-4-ylamino)-2,2′-dimethylbiphenyl-3-yl)benzo[d]oxazol-5-yl)methyl)-3-methylpyrrolidine-3-carboxylic Acid] | 10 to 100 | ≤ 10 | ≤ 10 | 10 to 100 |
| Cc1nc(Nc2cccc(-c3cccc(-c4nc5cc(CN6CCC(C(=O)O)CC6)cc(C#N)c5o4)c3C)c2C)c2ncc(CN3CC[C@](C)(O)C3)cc2n1 [Example 3, (S)-1-((7-cyano-2-(3′-(7-((3-hydroxy-3-methylpyrrolidin-1-yl)methyl)-2-methylpyrido[3,2-d]pyrimidin-4-ylamino)-2,2′-dimethylbiphenyl-3-yl)benzo[d]oxazol-5-yl)methyl)piperidine-4-carboxylic Acid] | 10 to 100 | ≤ 10 | ≤ 10 | 10 to 100 |

Second part, led by results:

| IC50 (PD-L1) [nM] | IC50 (PD-1/PD-L1) [nM] | IC50 [2] [nM] | Structure (SMILES) | EC50 [1] [nM] |
| --- | --- | --- | --- | --- |
| 10 to 100 | ≤ 10 | ≤ 10 | Cc1nc(Nc2cccc(-c3cccc(-c4nc5cc(CN6CCC(C(=O)O)CC6)cc(C#N)c5o4)c3C)c2C)c2ncc(CN[C@@H](C)CO)cc2n1 [Example 4, (S)-1-((7-cyano-2-(3′-(7-((1-hydroxypropan-2-ylamino)methyl)-2-methylpyrido[3,2-d]pyrimidin-4-ylamino)-2,2′-dimethylbiphenyl-3-yl)benzo[d]oxazol-5-yl)methyl)piperidine-4-carboxylic Acid] | 10 to 100 |
| 10 to 100 | ≤ 10 | ≤ 10 | Cc1c(Nc2nc(C(F)F)nc3cc(CN4CC[C@@H](O)C4)cnc23)cccc1-c1cccc(-c2nc3cc(CN4CC[C@@](C)(C(=O)O)C4)cc(C#N)c3o2)c1C [Example 18, (R)-1-((7-cyano-2-(3′-(2-(difluoromethyl)-7-(((R)-3-hydroxypyrrolidin-1-yl)methyl)pyrido[3,2-d]pyrimidin-4-ylamino)-2,2′-dimethylbiphenyl-3-yl)benzo[d]oxazol-5-yl)methyl)-3-methylpyrrolidine-3-carboxylic Acid] | 10 to 100 |
| 10 to 100 | ≤ 10 | ≤ 10 | Cc1c(Nc2nc(C(F)F)nc3cc(CN4CC[C@@](C)(O)C4)cnc23)cccc1-c1cccc(-c2nc3cc(CN4CCC(C(=O)O)CC4)cc(C#N)c3o2)c1C [Example 30, (R)-1-((7-cyano-2-(3′-(2-(difluoromethyl)-7-((3-hydroxy-3-methylpyrrolidin-1-yl)methyl)pyrido[3,2-d]pyrimidin-4-ylamino)-2,2′-dimethylbiphenyl-3-yl)benzo[d]oxazol-5-yl)methyl)piperidine-4-carboxylic Acid] | ≤ 10 |
| 10 to 100 | ≤ 10 | ≤ 10 | Cc1nc(Nc2cccc(-c3cccc(-c4nc5cc(CN6CC[C@@H](C(=O)O)C6)cc(C#N)c5o4)c3C)c2C)c2ncc(CN3CC[C@@](C)(O)C3)cc2n1 [Example 7, (R)-1-((7-cyano-2-(3′-(7-(((R)-3-hydroxy-3-methylpyrrolidin-1-yl)methyl)-2-methylpyrido[3,2-d]pyrimidin-4-ylamino)-2,2′-dimethylbiphenyl-3-yl)benzo[d]oxazol-5-yl)methyl)pyrrolidine-3-carboxylic Acid] | 10 to 100 |
